Laboratory results: patent US8202513B2, “Aryl potassium channel blockers and uses thereof” (Bionomics Limited, priority 2007, dated 2012)
pEC50: −log10 of the molar value.

What was measured:
human Kv1.3 ion channel = target: T1, human Kv1.3 ion channel (Homo sapiens, UniProt P22001); test: Inhibition of Kv1.3 currents, planar patch clamp; type: cell-based; conditions: Human Jurkat cells or CHO cells stably transfected with hKv1.3; averaged dose response data from 3 or more cells
T1 construct: Human Jurkat cells (which endogenously express hKv1.3) or Chinese Hamster Ovary (CHO) cells stably transfected with hKv1.3 were used; endogenous in cells; host or cells: Human Jurkat cells (endogenous) or CHO cells stably transfected with hKv1.3
T1 sequence (P22001 whole entry): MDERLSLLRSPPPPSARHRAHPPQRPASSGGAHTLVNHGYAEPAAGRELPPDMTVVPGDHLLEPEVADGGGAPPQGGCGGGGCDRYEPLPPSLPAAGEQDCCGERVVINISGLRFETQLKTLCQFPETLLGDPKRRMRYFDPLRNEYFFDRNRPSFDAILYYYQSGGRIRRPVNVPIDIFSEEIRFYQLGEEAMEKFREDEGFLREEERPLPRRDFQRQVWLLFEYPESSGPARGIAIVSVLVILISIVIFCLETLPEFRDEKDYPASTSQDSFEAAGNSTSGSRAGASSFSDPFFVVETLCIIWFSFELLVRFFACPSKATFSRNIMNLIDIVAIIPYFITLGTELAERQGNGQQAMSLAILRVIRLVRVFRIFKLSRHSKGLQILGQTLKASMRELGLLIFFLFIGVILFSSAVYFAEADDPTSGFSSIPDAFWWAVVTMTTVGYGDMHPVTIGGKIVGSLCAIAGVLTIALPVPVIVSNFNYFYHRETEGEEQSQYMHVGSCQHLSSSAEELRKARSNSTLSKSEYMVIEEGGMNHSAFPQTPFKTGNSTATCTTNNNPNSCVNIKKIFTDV
Description: Potency of compounds to inhibit the human Kv1.3 ion channel was determined as follows:
(§1) EC50 values for inhibition of Kv1.3 currents were determined by the method according to Schmitz et al (2005) Molecular Pharmacology 68, 1254-1270 with the following differences: • 1. Human Jurkat cells (which endogenously express hKv1.3) or Chinese Hamster Ovary (CHO) cells stably transfected with hKv1.3 were used in place of transfected rat L929 cells. • 2. All electrophysiology was performed using planar patch clamp (Port-A-Patch, Nanion Technologies Gmbh, Munich) in contrast to conventional patch clamp. • 3. EC50 values shown were determined from averaged dose response data obtained from 3 or more cells.

hKv1.1 = target: T2, hKv1.1 (Homo sapiens, UniProt Q09470); test: Inhibition of Kv1.1 currents, planar patch clamp (selectivity); type: cell-based; conditions: CHO cells stably transfected with hKv1.1
T2 construct: expressed in transfected cells; host or cells: CHO cells, stably transfected
T2 sequence (Q09470 whole entry): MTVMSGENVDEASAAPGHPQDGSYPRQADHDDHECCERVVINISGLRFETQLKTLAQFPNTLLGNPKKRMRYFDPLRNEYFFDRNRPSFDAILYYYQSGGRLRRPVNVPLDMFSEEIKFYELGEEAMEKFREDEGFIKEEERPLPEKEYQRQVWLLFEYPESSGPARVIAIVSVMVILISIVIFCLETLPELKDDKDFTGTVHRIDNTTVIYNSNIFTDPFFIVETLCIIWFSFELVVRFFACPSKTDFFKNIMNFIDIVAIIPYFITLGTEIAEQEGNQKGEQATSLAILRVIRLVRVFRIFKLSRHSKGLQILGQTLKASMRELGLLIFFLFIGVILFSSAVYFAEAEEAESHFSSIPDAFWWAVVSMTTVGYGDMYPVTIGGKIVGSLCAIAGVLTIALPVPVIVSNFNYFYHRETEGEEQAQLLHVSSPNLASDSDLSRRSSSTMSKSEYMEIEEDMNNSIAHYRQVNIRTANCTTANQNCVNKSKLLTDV
Description: as §1, with “Kv1.1 and Kv1.5” for “Kv1.3”, “1.” for “1. Human Jurkat cells (which endogenously express hKv1.3) or”, “hKv1.1 and hKv1.5” for “hKv1.3”

hKv1.5 = hKv1.5 (Homo sapiens, UniProt P22460); test: Inhibition of Kv1.5 currents, planar patch clamp (selectivity); type: cell-based; conditions: CHO cells stably transfected with hKv1.5
Sequence of hKv1.5 (P22460 whole entry): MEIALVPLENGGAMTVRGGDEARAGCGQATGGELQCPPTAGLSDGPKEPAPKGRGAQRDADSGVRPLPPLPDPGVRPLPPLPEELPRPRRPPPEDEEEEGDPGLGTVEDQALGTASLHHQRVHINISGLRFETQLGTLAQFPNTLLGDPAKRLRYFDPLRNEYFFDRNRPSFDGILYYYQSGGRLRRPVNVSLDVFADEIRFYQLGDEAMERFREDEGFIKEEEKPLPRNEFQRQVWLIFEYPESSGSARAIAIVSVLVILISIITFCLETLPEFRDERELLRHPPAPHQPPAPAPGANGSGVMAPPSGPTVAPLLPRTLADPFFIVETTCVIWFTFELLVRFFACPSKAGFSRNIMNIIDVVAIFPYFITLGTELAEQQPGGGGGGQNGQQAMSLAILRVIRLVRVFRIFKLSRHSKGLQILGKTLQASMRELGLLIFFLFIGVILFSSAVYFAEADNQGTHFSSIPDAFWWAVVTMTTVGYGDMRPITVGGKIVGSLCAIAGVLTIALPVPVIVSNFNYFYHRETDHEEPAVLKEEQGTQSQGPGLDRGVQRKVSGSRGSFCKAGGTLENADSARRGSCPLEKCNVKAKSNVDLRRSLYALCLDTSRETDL
Description: as §1, with “Kv1.1 and Kv1.5” for “Kv1.3”, “1.” for “1. Human Jurkat cells (which endogenously express hKv1.3) or”, “hKv1.1 and hKv1.5” for “hKv1.3”

Kv1.3 channel = Kv1.3 channel (Homo sapiens, UniProt P22001); conditions: cited from earlier work
Sequence of Kv1.3 channel (P22001 whole entry): as the sequence (P22001 whole entry) above

| Structure (SMILES) | pEC50 (human Kv1.3 ion channel) | other results |
| --- | --- | --- |
| COc1c(Cl)c(C)c(C(C)=O)c(OCCc2ccccn2)c1OCCC(C)c1ccc(F)cc1 (centres unmarked) [Example 7d, 1-[3-Chloro-5-[3-(4-fluoro-phenyl)-butoxy]-4-methoxy-2-methyl-6-(2-pyridin-2-yl-ethoxy)-phenyl]-ethanone] | > 7.30 | Selectivity for Kv1.3 over Kv1.1 (hKv1.1): 45 fold; selectivity for Kv1.3 over Kv1.5 (hKv1.5): 37 fold |
| COc1c(C(C)=O)c(O)c(OC)c2occc12 [Khellinone] | – | blocking activity on the Kv1.3 channel (Kv1.3 channel): weak blocking activity |
| COc1c2occc2cc2ccc(=O)oc12 [8-Methoxypsoralen (8-MOP), 8-Methoxypsoralen] | – | blocking activity on the Kv1.3 channel (Kv1.3 channel): weak blocking activity |
| COc1c(Cl)c(C)c(C(C)=O)c(OCCN2CCOCC2)c1OCCC(C)c1ccc(F)cc1 (centres unmarked) [Example 8b, 1-[3-Chloro-5-[3-(4-fluoro-phenyl)-butoxy]-4-methoxy-2-methyl-6-(2-morpholin-4-yl-ethoxy)-phenyl]-ethanone] | > 7.30 | Selectivity for Kv1.3 over Kv1.1 (hKv1.1): 33 fold; selectivity for Kv1.3 over Kv1.5 (hKv1.5): 35 fold |
| COc1c(Cl)c(C)c(C(C)=O)c(OCCN(C)C)c1OCCC(C)c1ccc(F)cc1 (centres unmarked) [Example 40, 1-{3-Chloro-6-(2-dimethylamino-ethoxy)-5-[3-(4-fluoro-phenyl)-butoxy]-4-methoxy-2-methyl-phenyl}-ethanone] | 6.82 to 7.30 | – |
| COc1ccc(C(C)=O)c(NC(=O)CCc2ccccc2)c1 [reference compound] | < 6.52 | – |
| COc1c(Cl)c(C)c(C(C)=O)c(OCCN2CCOCC2)c1CCCCc1ccccc1 [Example 26b, 1-(3-Chloro-4-methoxy-2-methyl-6-(2-morpholinoethoxy)-5-5(4-phenylbutyl)phenyl)ethanone] | > 7.30 | – |
| COc1c(Cl)c(C)c(C(C)=O)c(OCCn2cncn2)c1OCCC(C)c1ccc(F)cc1 (centres unmarked) [Example 19, 1-[3-Chloro-5-[3-(4-fluorophenyl)-butoxy]-4-methoxy-2-methyl-6-(2-[1,2,4]-triazol-1-yl-ethoxy)-phenyl]-ethanone] | 6.82 to 7.30 | – |
| COc1c(Cl)c(C)c(C(C)=O)c(OCCN2CCC(O)CC2)c1OCCC(C)c1ccc(F)cc1 (centres unmarked) [Example 14, 1-{3-Chloro-5-[3-(4-fluoro-phenyl)-butoxy]-6-[2-(4-hydroxy-piperidin-1-yl)-ethoxy]-4-methoxy-2-methyl-phenyl}-ethanone] | 6.82 to 7.30 | – |
| COc1c(C)c(C)c(C(C)=O)c(OCCN2CCOCC2)c1OCCCc1ccc(F)cc1 [Example 3c, 1-[3-[3-(4-Fluoro-phenyl)-propoxy]-4-methoxy-5,6-dimethyl-2-(2-morpholin-4-yl-ethoxy)-phenyl]-ethanone] | 6.82 to 7.30 | – |
| COc1c(Cl)c(C)c(C(C)=O)c(OCCOc2cnccn2)c1OCCC(C)c1ccc(F)cc1 (centres unmarked) [Example 18b, 1-{3-Chloro-5-[3-(4-fluoro-phenyl)-butoxy]-4-methoxy-2-methyl-6-[2-(pyrazin-2-yloxy)-ethoxy]-phenyl}-ethanone] | > 7.30 | – |
| COc1c(Cl)c(C)c(C(C)=O)c(OCCN2CC(F)(F)C2)c1OCCCc1ccccc1 [Example 35, 1-[3-Chloro-6-[2-(3,3-difluoro-azetidin-1-yl)-ethoxy]-4-methoxy-2-methyl-5-(3-phenyl-propoxy)-phenyl]-ethanone] | < 6.52 | – |
| CC(=O)Nc1ccc(C(C)=O)c(OCCCc2ccccc2)c1 [reference compound] | < 6.52 | – |
